One series concerns HIV-1 virus strain IIIB. The series is described as follows: microbe, parasite or virus in culture. The note with it: for inhibition at 5 µM: read-out: inhibition of viral replication; for effect on viral replication (in words): non-activated CD4+ lymphocytes, HC 0.05 or 0.15 mM, ddI or AZT 5 μM; for p24-HIV production in culture supernatant: day 15, infected control 86215. How it is done:
(§1) Non-activated CD4^+ cells were infected, then treated for 7 days by HC, ddI or the combination of the two, then activated by PHA and IL-2 (PHA-IL-2).
(§2) The CD4^+ lymphocytes were purified from PBMC with immunomagnetic beads (Dynabeads* M450). These cells were infected with the HIV-1 virus strain IIIB at a multiplicity of infection of 5 000 tissue culture infectious dose (TCID) per 10^6 cells (241 pg/ml p24 antigen equivalent of virus). After 2 hours of virus-cell contact, the cells were washed twice and placed in the culture medium RPMI 1640 (supplemented with 10% fetal calf serum (FCS), 2 mM glutamine, penicillin 100 IU/ml and Streptomycin 100 μg/ml) at a density of 1.3×10^6 cells/ml. ddI was immediately added at a concentration of 5 μM and HC at concentrations of 0.05 mM and […]. The drugs and culture medium were partially renewed (50%) on day 4, maintaining the same concentration of each. On day 7, in order to remove the drugs, the cells were washed twice and put back in culture in the presence of PHA at a concentration of 1 μg/ml and recombinant IL-2 at a concentration of 20 U/ml. This culture was maintained until day 25, with partial renewal (50%) of the medium twice a week. The number of viable cells was quantified by a tetrazolium-based colorimetric 3-(4,5-dimethylthiazol-2-yl)-2,5-diphenyltetrazolium bromide (MTT) method (Pauwels, R. et al J. Virol. Methods, 20, 309-321, (1988)), and activity is expressed as a percentage of the signal in the drug-free and virus-free control. Viral replication was quantified by measuring the HIV-1 p24 antigen by ELISA using the Dupont de Nemours kit.
In FIG. 2, there is shown a study of the activity of the combination of AZT and HC on non-activated CD4^+ lymphocytes infected with the HIV virus. The CD4^+ lymphocytes were purified from PBMC with immunomagnetic beads (Dynabeads* M450). These cells were infected with the HIV-1 virus strain IIIB at a multiplicity of infection of 5 000 tissue culture infectious dose (TCID) per 10^6 cells (241 pg/ml p24 antigen equivalent of virus). After 2 hours of virus-cell contact, the cells were washed twice and placed in the culture medium RPMI 1640 (supplemented with 10% FCS, 2 mM glutamine, penicillin 100 IU/ml and streptomycin 100 μg/ml) at a density of 1.3×10^6 cells/ml. AZT was immediately added at a concentration of 5 μM and HC at a concentration of 0.05 mM and 0.15 mM. The drugs and culture medium were partially renewed (50%) on day 4, maintaining the same concentration of each. On day 7, in order to remove the drugs, the cells were washed twice and put back in culture in the presence of PHA at a concentration of 1 μg/ml and recombinant IL-2 at a concentration of 20 U/ml. This culture was maintained until day 25, with partial renewal (50%) of the medium twice a week. The number of viable cells was quantified by a tetrazolium-based colorimetric 3-(4,5-dimethylthiazol-2-yl)-2,5-diphenyltetrazolium bromide (MTT) method (Pauwels, R. et al J. Virol. Methds, 20,309-321, (1988)), and activity is expressed as a percentage of the signal in the drug-free and virus-free control. Viral replication was quantified by measuring the HIV-1 p24 antigen by ELISA using the Dupont de Nemours kit.

A short description of another series: in vitro. Conditions: human, cd4+ lymphocytes. How it is done:
as §1
as §2, with “This culture was maintained until day 25, with partial renewal (50%) of the medium twice a week.” left out
(§3) In FIG. 2, there is shown a study of the activity of the combination of AZT and HC on non-activated CD4^+ lymphocytes infected with the HIV virus. […] The number of viable cells was quantified by a tetrazolium-based colorimetric 3-(4,5-dimethylthiazol-2-yl)-2,5-diphenyltetrazolium bromide (MTT) method (Pauwels, R. et al J. Virol. Methds, 20,309-321, (1988)), and activity is expressed as a percentage of the signal in the drug-free and virus-free control. Viral replication was quantified by measuring the HIV-1 p24 antigen by ELISA using the Dupont de Nemours kit.

Another series relates to HIV-1 strain IIIB. The series is described as follows: microbe, parasite or virus in culture. The note with it: for p24 production: day 6. The protocol:
(§4) The PBMC were purified from peripheral blood by discontinous Ficoll density gradient centrifugation. The cells were grown at a density of 1.3×10^6 cells/ml in RPMI 1640 medium supplemented with 10% FCS, 2 mM glutamine, penicillin 100 IU/ml and streptomycin 100 μg/ml, in the presence of PHA at a concentration of 1 μg/ml and recombinant IL-2 at 20 U/ml for 72 hours, then infected by HIV-1 strain IIIB at a multiplicity of 5000 TCID for 10^6 cells (241 pg/ml p24 antigen equivalent of virus). In FIG. 3, the first time point represent viral infection of the cells. After 2 hours of virus-cell contact, the cells were washed twice and placed in the culture medium containing IL-2 but without PHA in the presence of ddI at a concentration of 10 μM and of HC at a concentration of 0.15 mM. These cultures were maintained for 20 days, with partial renewal of the medium and of the two drugs twice a week maintaining the initial concentration. At day 6 and day 14 fresh uninfected donor PBMC were added (5×10^5 /ml) to replenish aged cultures (Nature, 361:1993, 650-654). The number of viable cells were quantified by a tetrazolium-based colorimetric 3-(4,5-dimethylthiazol-2-yl)-2,5-diphenyltetrazolium bromide (MTT) method (Pauwels, R. et al J. Virol. Methods, 20:309-321, (1988)), and activity is expressed as a percentage of the signal in the drug-free and virus-free control. Viral replication was quantified by measuring the HIV-1 p24 antigen by ELISA using the Dupont de Nemours kit.

In series [1] the test system is PBMC preactivated with PHA and IL-2. The series is described as follows: Inhibitory concentration 50% in preactivated PBMC by MTT test. It is filed as cell-based. Conditions: 72 h, read-out: IC50 (inhibitory concentration 50%), after 3 days. How it is done:
as §4, with “At day 6 and day 14 fresh uninfected donor PBMC were added (5×10^5 /ml) to replenish aged cultures (Nature, 361:1993, 650-654).” left out

Series [2] in a line: Cell viability of preactivated PBMC by Trypan Blue exclusion. The format is cell-based. Conditions: human, HC 0.15 mM, 2% Trypan Blue exclusion, read-out: cellular viability.
Series [3] in a line: Cytotoxicity in non-activated lymphocytes (PBLs) pretreated 24 h and then activated 48 h. It is filed as cell-based. The note with it: human, HC 1 mM, 24 h pretreatment, then PHA and IL-2 for 48 h in presence of HC, read-out: PBLs dying due to the drug's toxicity. From the text: Under such conditions, greater than 70% of the PBLs die due to the drug's toxicity.
Series [4] deals with dNTP pools in PHA-stimulated PBLs. The note with it: HC 1 mM, cited from earlier work.
In series [5] the test system is non-activated CD4+ lymphocytes. The series is described as follows: in vitro. The note with it: after PHA-IL-2 stimulation. How it is done:
as §1
as §2, with “This culture was maintained until day 25, with partial renewal (50%) of the medium twice a week.” left out
as §3

Setting [6] is: Human immunodeficiency virus 1, IIIB, Lymphocyte.
Where [7] appears, read: single drug 5 μM, infected control 86215 pg p24/ml.
[8] abbreviates: Human immunodeficiency virus 1, IIIB, PBMC, 144 h, read-out: inhibition of viral replication.

“Also recorded” adds a separate entry of the source. Where two headings read alike, the source gives them in different places.

What is called inhibition is the relative decrease from the control value, in per cent. In general, viability refers to a read-out of living cells in per cent, often relative to untreated cells.

For `Cc1cn([C@H]2C[C@H](N=[N+]=[N-])[C@@H](CO)O2)c(=O)[nH]c1=O` [AZT, 3'-azido-2',3'-dideoxythymidine], the log reduction at 5 µM with HIV-1 virus strain IIIB (Human immunodeficiency virus 1, IIIB, Lymphocyte, read-out: antiviral activity (log reduction)) was less than 1. In addition, in the series with HIV-1 virus strain IIIB (setting [6]), the inhibition at 5 µM came out at 88.4%. In addition, the “effect on viral replication (in words)” value in the series on HIV-1 virus strain IIIB is given as “only slight antiviral activity; also recorded: only a slight effect on viral replication”. In addition, the p24 production with HIV-1 virus strain IIIB (setting [7]) came to 10300 pg p24/ml.
Consider `NC(=O)NO` [HC, hydroxycarbamide], for which the “p24-HIV production in culture supernatant” value in the series with HIV-1 virus strain IIIB (HC 0.05 mM) is given as 75460 pg of p24/ml; in the series on HIV-1 virus strain IIIB (HC 0.15 mM) it was 82005 pg of p24/ml. The “effect on viral replication (in words)” value in the series on HIV-1 virus strain IIIB is recorded as “incapable of preventing the production of infectious virions”. The cytotoxicity at 50 µM in “in vitro” was more than 50%. In addition, in the series “in vitro”, the cytotoxicity at 150 µM is more than 50%. The p24 production with HIV-1 strain IIIB (HC alone 0.15 mM) was 12500 pg p24/ml. Further, in the series with HIV-1 strain IIIB (setting [8]), the inhibition at 150 µM stood at 82.6%. Besides, the IC50 in series [1] was 150 µM. In addition, the viability at 72 h, 150 µM in series [2] was more than 90%. Besides, in series [3], the cytotoxicity at 72 h, 1000 µM was more than 70%. In addition, the “effect on dNTP levels and DNA synthesis rate (in words)” value in series [4] (listed as hydroxyurea) was “decreases dNTP levels and the DNA synthesis rate to levels comparable to quiescent PBLs; also recorded: decreases the dNTP levels and the DNA synthesis rate to levels comparable to quiescent PBLs”; in series [4], “partially reduces the various dNTP pools studied”.
For the molecule `OC[C@@H]1CC[C@H](n2cnc3c(O)ncnc32)O1` [ddI, 2',3'-dideoxy-inosine], in the series on HIV-1 virus strain IIIB (setting [6]), the inhibition at 5 µM came to 99.1%. For the same molecule, the p24 production in the series with HIV-1 virus strain IIIB (ddI 5 μM alone, day 25) worked out at 101080 pg p24/ml; with HIV-1 virus strain IIIB (setting [7]), 766 pg p24/ml; with HIV-1 strain IIIB (ddI alone 10 μM), 2071 pg p24/ml. The “effect on viral replication (in words)” value in the series on HIV-1 virus strain IIIB was “reached substantially the same level of p24 production as the infected control; also recorded: only temporarily and partially inhibited”. Besides, in series [5], the “proliferative cellular response / cytopathic effect (in words)” value is given as “cytopathic effect was observed later”. The inhibition at 10 µM in the series with HIV-1 strain IIIB (setting [8]) is 97.1%.

Values taken from US6093702A, “Mixtures of dideoxy-nucleosides and hydroxycarbamide for inhibiting retroviral spread” (The United States of America as represented by the …, priority 1995, dated 2000).
